The target in one experiment is T1, BRAF V600E (Homo sapiens, UniProt P15056, V600E).
T1 construct: expressed in transfected cells
Put plainly: Cellular assay of target protein degradation, T-Rex 293 cells stably transfected with HA-BRAF_V600E (HA immunofluorescence, high content imaging). The class given is cell-based. In a few lines: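 Cells are plated with 1 ng/mL doxycycline and grown 24 h. Compound is then added (final 1 μM–0.1 nM, 0.1% DMSO) for another 24 h at 37 °C, followed by fixing, HA immunostaining and imaging to obtain DC50 and Dmax.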

In a further experiment the target is T2, BRAF G466V (Homo sapiens, UniProt P15056, G466V).
T2 construct: expressed in transfected cells
T2 sequence (P15056 whole entry G466V): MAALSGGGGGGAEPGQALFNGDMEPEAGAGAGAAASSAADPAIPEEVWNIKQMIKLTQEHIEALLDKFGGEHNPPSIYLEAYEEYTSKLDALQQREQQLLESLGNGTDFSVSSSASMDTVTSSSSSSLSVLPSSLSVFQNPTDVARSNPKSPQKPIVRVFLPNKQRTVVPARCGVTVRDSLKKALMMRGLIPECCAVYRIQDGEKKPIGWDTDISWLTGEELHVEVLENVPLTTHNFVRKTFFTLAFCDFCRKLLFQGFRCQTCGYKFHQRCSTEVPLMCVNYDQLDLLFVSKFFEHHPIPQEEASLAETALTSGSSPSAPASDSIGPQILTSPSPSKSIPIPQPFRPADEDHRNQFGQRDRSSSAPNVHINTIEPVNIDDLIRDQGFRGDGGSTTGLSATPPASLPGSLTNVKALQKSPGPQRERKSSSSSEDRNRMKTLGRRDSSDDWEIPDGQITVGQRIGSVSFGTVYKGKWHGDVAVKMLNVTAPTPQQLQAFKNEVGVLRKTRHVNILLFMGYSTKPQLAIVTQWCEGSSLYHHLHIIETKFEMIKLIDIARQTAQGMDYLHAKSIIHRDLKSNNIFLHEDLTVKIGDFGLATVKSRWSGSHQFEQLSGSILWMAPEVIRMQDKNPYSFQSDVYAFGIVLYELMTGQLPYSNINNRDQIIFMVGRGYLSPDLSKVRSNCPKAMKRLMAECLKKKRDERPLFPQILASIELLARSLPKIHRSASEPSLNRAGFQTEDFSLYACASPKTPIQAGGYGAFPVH
The experiment in a line: Cellular assay of target protein degradation, T-Rex 293 cells stably transfected with HA-BRAF G466V (HA immunofluorescence, high content imaging). The class given is cell-based. Summed up: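 Read-out is HA immunofluorescence by high content imaging, with Hoechst and phalloidin co-staining, giving DC50 and Dmax as a percentage of control. Compound exposure lasts 24 hours at 37° C over 30 nM to 3 pM in 0.1% DMSO, with doxycycline-induced HA-BRAF G466V.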

[1] abbreviates: half maximal degradation, T-Rex 293 HA-BRAF V600E; read-out: BRaf V600E DC50.
The mark [2] stands for this setting: maximum degradation observed, T-Rex 293 HA-BRAF V600E.
Where [3] appears, read: half maximal degradation, T-Rex 293 HA-BRAF G466V; read-out: BRaf G466V DC50.
Setting [4] is: maximum degradation observed, T-Rex 293 HA-BRAF G466V.

Like-named read-outs stand apart in the source and are kept apart here.

Broadly, the DC50 is the concentration at which degradation of the target reaches its halfway point. Usually Dmax stands for the largest share of the target that was removed.

T1 sequence (P15056 whole entry V600E): as the sequence (P15056 whole entry G466V) above, with V466G, V600E counted along it

Consider `O=C1CC[C@@H](N2Cc3cc(N4CC(CN5C[C@@H]6CN(c7ccc(-c8cnc9[nH]cc(C(=O)c%10c(F)ccc(NS(=O)(=O)N%11CC[C@@H](F)C%11)c%10F)c9c8)cc7)C[C@@H]6C5)C4)ccc3C2=O)C(=O)N1` [Compound 86, (3R)-N-[3-(5-{4-[(3aR,6aS)-5-[(1-{2-[(3R)-2,6-dioxopiperidin-3-yl]-1-oxo-2,3-dihydro-1H-isoindol-5-yl}azetidin-3-yl)methyl]-octahydropyrrolo[3,4-c]pyrrol-2-yl]phenyl}-1H-pyrrolo[2,3-b]pyridine-3-carbonyl)-2,4-difluorophenyl]-3-fluoropyrrolidine-1-sulfonamide], for which the DC50 on BRAF V600E (setting [1]) fell in the range of 5 to 50 nM; on BRAF G466V (setting [3]), 1 to 10 nM. Also, the Dmax on BRAF V600E (setting [2]) is 35 to 70%; at BRAF G466V (setting [4]) it was above 70%.

With `O=C1CC[C@H](N2Cc3cc(C4CCN(CC5CCN(c6ccc(-c7cnc8[nH]cc(C(=O)c9c(F)ccc(NS(=O)(=O)N%10CC[C@@H](F)C%10)c9F)c8c7)cc6F)CC5)CC4)ccc3C2=O)C(=O)N1` [Compound 87, (3R)-N-{3-[5-(4-{4-[(4-{2-[(3S)-2,6-dioxopiperidin-3-yl]-1-oxo-2,3-dihydro-1H-isoindol-5-yl}piperidin-1-yl)methyl]piperidin-1-yl}-3-fluorophenyl)-1H-pyrrolo[2,3-b]pyridine-3-carbonyl]-2,4-difluorophenyl}-3-fluoropyrrolidine-1-sulfonamide], the DC50 at BRAF V600E (setting [1]) is below 5 nM; on BRAF G466V (setting [3]), below 1 nM. In addition, the Dmax on BRAF V600E (setting [2]) is 35 to 70%; on BRAF G466V (setting [4]), above 70%.

Consider `O=C1CC[C@@H](N2Cc3cc(C4CCN(CC5CCN(c6ccc(-c7cnc8[nH]cc(C(=O)c9c(F)ccc(NS(=O)(=O)N%10CC[C@@H](F)C%10)c9F)c8c7)cc6F)CC5)CC4)ccc3C2=O)C(=O)N1` [Compound 88, (3R)-N-{3-[5-(4-{4-[(4-{2-[(3R)-2,6-dioxopiperidin-3-yl]-1-oxo-2,3-dihydro-1H-isoindol-5-yl}piperidin-1-yl)methyl]piperidin-1-yl}-3-fluorophenyl)-1H-pyrrolo[2,3-b]pyridine-3-carbonyl]-2,4-difluorophenyl}-3-fluoropyrrolidine-1-sulfonamide], for which the DC50 at BRAF V600E (setting [1]) is below 5 nM; at BRAF G466V (setting [3]) it was below 1 nM. Besides, the figures for the Dmax on BRAF V600E (setting [2]) and on BRAF G466V (setting [4]) were 35 to 70% and above 70%, respectively.

`O=C1CCC(N2Cc3cc(OCCN4CC5(C4)CN(c4ccc(-c6cnc7[nH]cc(C(=O)c8c(F)ccc(NS(=O)(=O)N9CC[C@@H](F)C9)c8F)c7c6)cc4)C5)ccc3C2=O)C(=O)N1` (stereo partly drawn) [Compound 89, (3R)-N-[3-(5-{4-[6-(2-{[2-(2,6-dioxopiperidin-3-yl)-1-oxo-2,3-dihydro-1H-isoindol-5-yl]oxy}ethyl)-2,6-diazaspiro[3.3]heptan-2-yl]phenyl}-1H-pyrrolo[2,3-b]pyridine-3-carbonyl)-2,4-difluorophenyl]-3-fluoropyrrolidine-1-sulfonamide]: the DC50 at BRAF V600E (setting [1]) is below 5 nM; at BRAF G466V (setting [3]) it was below 1 nM. The Dmax on BRAF V600E (setting [2]) and at BRAF G466V (setting [4]) was 35 to 70% throughout.

`O=C1CCC(N2Cc3cc(N4CCN(C[C@H](O)Cc5ccc(-c6cnc7[nH]cc(C(=O)c8c(F)ccc(NS(=O)(=O)N9CC[C@@H](F)C9)c8F)c7c6)cc5)CC4)ccc3C2=O)C(=O)N1` (stereo partly drawn) [Compound 90, (3R)—N-[3-[5-[4-[(2R)-3-[4-[2-(2,6-dioxo-3-piperidyl)-1-oxo-isoindolin-5-yl]piperazin-1-yl]-2-hydroxy-propyl]phenyl]-1H-pyrrolo[2,3-b]pyridine-3-carbonyl]-2,4-difluoro-phenyl]-3-fluoro-pyrrolidine-1-sulfonamide]: the DC50 on BRAF V600E (setting [1]) is 5 to 50 nM; at BRAF G466V (setting [3]), 1 to 10 nM. Also, the Dmax at BRAF V600E (setting [2]) and at BRAF G466V (setting [4]) was 35 to 70% throughout.

For `O=C1CCC(N2Cc3cc(N4CCN(CC5CN(c6ncc(-c7cnc8[nH]cc(C(=O)c9c(F)ccc(NS(=O)(=O)N%10CC[C@@H](F)C%10)c9F)c8c7)cn6)C5)CC4)ccc3C2=O)C(=O)N1` (stereo partly drawn) [Compound 91, (3R)-N-[3-(5-{2-[3-({4-[2-(2,6-dioxopiperidin-3-yl)-1-oxo-2,3-dihydro-1H-isoindol-5-yl]piperazin-1-yl}methyl)azetidin-1-yl]pyrimidin-5-yl}-1H-pyrrolo[2,3-b]pyridine-3-carbonyl)-2,4-difluorophenyl]-3-fluoropyrrolidine-1-sulfonamide], the DC50 at BRAF V600E (setting [1]) lay within 5 to 50 nM; on BRAF G466V (setting [3]), 1 to 10 nM. For the same compound, the Dmax is 35 to 70% at BRAF V600E (setting [2]) and above 70% on BRAF G466V (setting [4]).

As to `O=C1CCC(N2Cc3cc(N4CCC(CN5CC6(CCN(c7ccc(-c8cnc9[nH]cc(C(=O)c%10c(F)ccc(NS(=O)(=O)N%11CC[C@@H](F)C%11)c%10F)c9c8)cn7)C6)C5)CC4)ccc3C2=O)C(=O)N1` (stereo partly drawn) [Compound 92, (3R)-N-[3-(5-{6-[2-({1-[2-(2,6-dioxopiperidin-3-yl)-1-oxo-2,3-dihydro-1H-isoindol-5-yl]piperidin-4-yl}methyl)-2,6-diazaspiro[3.4]octan-6-yl]pyridin-3-yl}-1H-pyrrolo[2,3-b]pyridine-3-carbonyl)-2,4-difluorophenyl]-3-fluoropyrrolidine-1-sulfonamide], the DC50 at BRAF V600E (setting [1]) is below 5 nM; at BRAF G466V (setting [3]), 1 to 10 nM. Also, the Dmax is 35 to 70% on BRAF V600E (setting [2]) and above 70% on BRAF G466V (setting [4]).

As for `O=C1CCC(N2Cc3cc(N4CCC(CN5CC6(CCN(c7ncc(-c8cnc9[nH]cc(C(=O)c%10c(F)ccc(NS(=O)(=O)N%11CC[C@@H](F)C%11)c%10F)c9c8)cn7)C6)C5)CC4)ccc3C2=O)C(=O)N1` (stereo partly drawn) [Compound 93, (3R)-N-[3-(5-{2-[2-({1-[2-(2,6-dioxopiperidin-3-yl)-1-oxo-2,3-dihydro-1H-isoindol-5-yl]piperidin-4-yl}lmethyl)-2,6-diazaspiro[3.4]octan-6-yl]pyrimidin-5-yl}-1H-pyrrolo[2,3-b]pyridine-3-carbonyl)-2,4-difluorophenyl]-3-fluoropyrrolidine-1-sulfonamide], the DC50 was below 5 nM at BRAF V600E (setting [1]) and 1 to 10 nM at BRAF G466V (setting [3]). The Dmax on BRAF V600E (setting [2]) was 35 to 70%; on BRAF G466V (setting [4]) it was above 70%.

For the compound `O=C1CCC(N2Cc3cc(C4CCN(CC5CCN(c6c(F)cc(-c7cnc8[nH]cc(C(=O)c9c(F)ccc(NS(=O)(=O)N%10CC[C@@H](F)C%10)c9F)c8c7)cc6F)CC5)CC4)ccc3C2=O)C(=O)N1` (stereo partly drawn) [Compound 94, (3R)-N-[3-(5-{4-[4-({4-[2-(2,6-dioxopiperidin-3-yl)-1-oxo-2,3-dihydro-1H-isoindol-5-yl]piperidin-1-yl}methyl)piperidin-1-yl]-3,5-difluorophenyl}-1H-pyrrolo[2,3-b]pyridine-3-carbonyl)-2,4-difluorophenyl]-3-fluoropyrrolidine-1-sulfonamide], the DC50 on BRAF V600E (setting [1]) is 5 to 50 nM; on BRAF G466V (setting [3]), 1 to 10 nM. For the same compound, the values for the Dmax at BRAF V600E (setting [2]) and on BRAF G466V (setting [4]) were 35 to 70% and above 70%, respectively.

Turning to `O=C1CCC(N2Cc3cc(N4CCC(CN5CCC6(CCN(c7ccc(-c8cnc9[nH]cc(C(=O)c%10c(F)ccc(NS(=O)(=O)N%11CC[C@@H](F)C%11)c%10F)c9c8)cn7)CC6)C5)CC4)ccc3C2=O)C(=O)N1` (stereo partly drawn) [Compound 95, (3R)-N-[3-(5-{6-[2-({1-[2-(2,6-dioxopiperidin-3-yl)-1-oxo-2,3-dihydro-1H-isoindol-5-yl]piperidin-4-yl}methyl)-2,8-diazaspiro[4.5]decan-8-yl]pyridin-3-yl}-1H-pyrrolo[2,3-b]pyridine-3-carbonyl)-2,4-difluorophenyl]-3-fluoropyrrolidine-1-sulfonamide], the DC50 is above 500 nM on BRAF V600E (setting [1]) and below 1 nM on BRAF G466V (setting [3]). Besides, the Dmax on BRAF G466V (setting [4]) was 35 to 70%.

In the case of `CC(C)(C1CCN(c2ccc(-c3cnc4[nH]cc(C(=O)c5c(F)ccc(NS(=O)(=O)N6CC[C@@H](F)C6)c5F)c4c3)cc2)CC1)N1CCN(c2ccc3c(c2)CN(C2CCC(=O)NC2=O)C3=O)CC1` (stereo partly drawn) [Compound 97, (3R)-N-[3-(5-{4-[4-(2-{4-[2-(2,6-dioxopiperidin-3-yl)-1-oxo-2,3-dihydro-1H-isoindol-5-yl]piperazin-1-yl}propan-2-yl)piperidin-1-yl]phenyl}-1H-pyrrolo[2,3-b]pyridine-3-carbonyl)-2,4-difluorophenyl]-3-fluoropyrrolidine-1-sulfonamide], the Dmax at BRAF V600E (setting [2]) is 35 to 70%; at BRAF G466V (setting [4]), above 70%. For the same compound, the DC50 at BRAF V600E (read-out: BRaf V600E DC50; half maximal degradation, T-Rex 293 HA-BRAF V600E) was in the range of 5 to 50 nM; on BRAF G466V (read-out: BRaf G466V DC50; half maximal degradation, T-Rex 293 HA-BRAF G466V), 1 to 10 nM.

On to `O=C1CCC(N2Cc3cc(N4CCN(C[C@@H](O)Cc5ccc(-c6cnc7[nH]cc(C(=O)c8c(F)ccc(NS(=O)(=O)N9CC[C@@H](F)C9)c8F)c7c6)cc5)CC4)ccc3C2=O)C(=O)N1` (stereo partly drawn) [Compound 98, (3R)-N-[3-(5-{4-[(2S)-3-{4-[2-(2,6-dioxopiperidin-3-yl)-1-oxo-2,3-dihydro-1H-isoindol-5-yl]piperazin-1-yl}-2-hydroxypropyl]phenyl}-1H-pyrrolo[2,3-b]pyridine-3-carbonyl)-2,4-difluorophenyl]-3-fluoropyrrolidine-1-sulfonamide], for which the figures for the DC50 on BRAF V600E (setting [1]) and at BRAF G466V (setting [3]) were 5 to 50 nM and 1 to 10 nM, respectively. For the same compound, the results for the Dmax at BRAF V600E (setting [2]) and at BRAF G466V (setting [4]) were 35 to 70% and above 70%, respectively.

The record behind these values is US12180193B2, “Accelerating fibrosarcoma protein degrading compounds and associated methods of use” (Arvinas Operations, Inc., priority 2020, dated 2024).
